Test results taken from patent publication US4614732A, “N^6 -acenaphthyl adenosines and analogs thereof” (Warner-Lambert Company, priority 1985, dated 1986).

Tests used:
[1] = molecular target: T1, adenosine A2 receptor (Rattus norvegicus, UniProt P30543); assay: Adenosine Receptor Binding--A2 Receptor Affinity (RBA2), [3H]NECA displacement, rat striatal membranes; design: species or system rat (Sprague-Dawley; Long-Evans); conditions: 4 nM [3H]NECA, 50 nM N6-cyclopentyladenosine, 25° C., 60 min, read-out: IC50 for adenosine A2 receptor affinity (RBA-2)
T1 construct: Brains were thawed and then kept on ice while the striata were dissected out; tissue Pel-Freez (Rogers, Ark.); host or cells: rat striatum, membranes
T1 sequence (P30543 whole entry): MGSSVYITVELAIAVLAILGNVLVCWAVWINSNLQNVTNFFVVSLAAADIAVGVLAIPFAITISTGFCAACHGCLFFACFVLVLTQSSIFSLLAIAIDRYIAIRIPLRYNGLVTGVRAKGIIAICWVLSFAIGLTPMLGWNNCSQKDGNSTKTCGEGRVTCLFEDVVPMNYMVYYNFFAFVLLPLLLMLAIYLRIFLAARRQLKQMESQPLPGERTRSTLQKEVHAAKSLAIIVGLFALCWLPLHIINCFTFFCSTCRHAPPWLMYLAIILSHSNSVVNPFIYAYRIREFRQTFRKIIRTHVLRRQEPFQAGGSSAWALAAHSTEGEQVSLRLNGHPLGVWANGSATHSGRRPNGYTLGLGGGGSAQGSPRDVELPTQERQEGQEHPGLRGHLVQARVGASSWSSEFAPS
Method: Brains from 200-500 g mixed sex Sprague-Dawley rats were purchased from Pel-Freez (Rogers, Ark.). Fresh brains from male Long-Evans hooded rats (Blue Spruce Farms, Altamont, NY) gave essentially identical results. Brains were thawed and then kept on ice while the striata were dissected out. Striata were disrupted in 10 vol of ice-cold 50 mM Tris.HCl (pH 7.7 at 25° C., pH 8.26 at 5° C.) (Tris) for 30 seconds in a Polytron PT-10 (Brinkmann) at setting 5. The suspension was centrifuged at 50,000×g for ten minutes, the supernatant discarded, the pellet resuspended in 10 vol ice-cold Tris as above, recentrifuged, resuspended at 1 g/5 ml, and stored in plastic vials at -70° C. (stable for at least six months). When needed, tissue was thawed at room temperature, disrupted in a Polytron, and kept on ice until used.
All incubations were for 60 minutes at 25° C. in 12×75 mm glass tubes containing 1 ml Tris with 5 mg original tissue weight of rat weight of rat striatal membranes, 4 nM [^3 H]-N-ethyl adenosine-5'-carboxamide ([^3 H]NECA), 50 nM N^6 -cyclopentyladenosine (to eliminate A1 receptor binding), 10 mM MgCl2, 0.1 units/ml of adenosine deaminase and 1% dimethylsulfoxide. N^6 -Cyclopentyladenosine was dissolved at 10 mM in 0.02N HCl and diluted in Tris. […]
Incubations were terminated by filtration through 2.4 cm GF/B filters under reduced pressure. […] Filters were put in scintillation vials, 8 ml of Formula 947 scintillation fluid added, and the vials left overnight, shaken, and counted in a liquid scintillation counter at 40% efficiency.
Nonspecific binding was defined as binding in the presence of 100 μM N^6 -cyclopentyladenosine, and specific binding was defined as total binding minus nonspecific binding. The IC50 was calculated by weighted nonlinear least squares curve-fitting to the mass-action equation. […]
Weighting factors were calculated under the assumption that the standard deviation was proportional to the predicted value of Y. Nonspecific binding was treated as a very large (inifinite) concentration of drug in the computer analysis.

[2] = molecular target: T2, adenosine A1 receptor (Rattus norvegicus, UniProt P25099); assay: Adenosine Receptor Binding--A1 Receptor Affinity (RBA1), [3H]-CHA displacement, rat whole brain membranes; design: species or system rat (male Long Evans); conditions: 1.0 nM [3H]-CHA, 25° C., one hour, read-out: IC50 for adenosine A1 receptor affinity (RBA-1)
T2 construct: Whole brain minus cerebellum and brainstem from male Long Evans rats; from tissue; host or cells: rat whole brain minus cerebellum and brainstem, membranes
T2 sequence (P25099 1-326): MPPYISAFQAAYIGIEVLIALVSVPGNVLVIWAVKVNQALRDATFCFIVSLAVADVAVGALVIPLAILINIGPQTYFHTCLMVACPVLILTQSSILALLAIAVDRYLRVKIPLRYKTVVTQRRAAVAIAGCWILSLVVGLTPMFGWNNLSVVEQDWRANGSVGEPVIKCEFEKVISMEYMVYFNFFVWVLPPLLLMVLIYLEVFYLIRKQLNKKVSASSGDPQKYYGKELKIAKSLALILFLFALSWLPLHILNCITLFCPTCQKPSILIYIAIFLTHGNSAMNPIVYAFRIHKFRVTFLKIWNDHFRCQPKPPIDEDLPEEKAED
Method: Whole brain minus cerebellum and brainstem from male Long Evans rats (150-200 g) was homogenized in 30 volumes of ice-cold 0.05M Tris-HCl buffer pH 7.7 using a Brinkman Polytron PT-10, (setting number 6 for 20 seconds) and centrifuged for ten minutes at 20,000×g (Sorvall RC-2), 4° C. The supernatant was discarded, and the pellet was resuspended and centrifuged as before. The pellet was resuspended in 20 ml Tris-HCl buffer containing two International Units/ml of adenosine deaminase (Sigma type III from calf intestinal mucosa), incubated at 37° C. for 30 minutes, then subsequently at 0° C. for ten minutes. The homogenate was again centrifuged, and the final pellet was resuspended in ice-cold 0.05M Tris-HCl buffer pH 7.7 to a concentration of 20 mg/ml original wet tissue weight and used immediately.
Tissue homogenate (10 mg/ml) was incubated in 0.05M Tris-HCl buffer pH 7.7 containing 1.0 nM [^3 H]-N^6 -cyclohexyladenosine ([^3 H]-CHA) with or without test agents in triplicate for one hour at 25° C. Incubation volume was 2 ml. Unbound [^3 H]-CHA was separated by rapid filtration under reduced pressure through Whatman glass fiber (GF/B) filters. The filters were rinsed three times with 5 ml of ice cold 0.05M Tris-HCl buffer pH 7.7. The radio-labeled ligand retained on the filter was measured by liquid scintillation spectrophotometry after shaking the filters for one hour or longer on a mechanical shaker in 10 ml of Beckman Ready-Solv HP scintillation cocktail.
Nonspecific binding was defined as the binding which occurred in the presence of 1 mM theophylline. The concentration of test agent which inhibited 50% of the specific binding (IC50) was determined by nonlinear computer curve fit. The Scatchard plot was calculated by linear regression of the line obtained by plotting the amount of radioligand bound (pmoles/gram of tissue) versus [formula] […] The Hill coefficient was calculated by linear regression of the line obtained by plotting the log of the bound radioligand vs the log of the [formula] The maximal number of binding sites (Bmax) was calculated from the Scatchard plot.

[3] = system: rat heart; assay: Coronary Blood Flow Evaluation: isolated perfused rat heart; conditions: for activation at 1 µM / inhibition at 1 µM: 1 × 10^-6 Molar; for activation at 0.01 µM / inhibition at 0.01 µM: 1 × 10^-8 Molar; for activation at 0.3 µM / inhibition at 0.3 µM: 3 × 10^-7 Molar; for activation at 0.03 µM / inhibition at 0.03 µM: 3 × 10^-8 Molar; for activation at 0.1 µM / inhibition at 0.1 µM: 1 × 10^-7 Molar; for activation at 3 µM / inhibition at 3 µM: 3 × 10^-6 Molar
Method: The usefulness of the compounds of the present invention as agents effective to treat angina, is shown by their effectiveness in standard pharmacological test procedures, for example, in causing significant increase in coronary blood flow in rats. This test procedure is described in the following paragraphs.
Male rats (400-600 gms) are pretreated with Na heparin 2000 units and anesthetized with Na pentobarbital (50 mg/kg) administered intraperitoneally. Once anesthetized, the rat heart is rapidly excised, the ascending aorta fitted to the aortic perfusion cannula, and secured with a ligature. The coronary arteries were perfused initially at a rate of about 15 ml/min for two to three minutes, after which they are perfused at constant pressure of 70 mm Hg and temperature of 37° C. The electrocardiogram (ECG) is recorded using two platinum electrodes positioned at the base and apex of the left venticle. A second heart is excised, cannulated, and perfused by the same method outlined above. Both hearts are tested in parallel. The standard physiological salt solution (PSS) is a modified Krebs-Hanseleit bicarbonate buffer of the following composition in mM concentration: NaCl, 127; NaHCO3, 25; dextrose, 5.5; Na Pyruvate, 2.0; KCl, 4.7; MgSO4, 1.1; KH2 PO4, 1.2; CaCl2.2H2 O, 2.5; CaNa2 EDTA, 0.05.
A 30-minute stabilization period is observed before starting the test protocol.
The microprocessor control system is a servo mechanism which permits coronary perfusion pressure (CPP) and drug concentration to be maintained constant independent of changes in coronary flow. The level at which CPP and drug concentration are maintained can be changed by commands communicated through the microprocessor keyboard. Dose-response curves are carried out by perfusing concentrated drug solution (DC) at rates proportional to total coronary flow (CFT). Drug concentrations are increased by proportionate increases in the rate of DC infusion over CFT via the microprocessor keyboard. The proportional flow rates for DC:CFT is about 0.0002:1 at the low end and 0.02:1 at the high end of the dose-response curve. Dose-response curves encompassing at least two log doses are carried out by preparing two DCs with a concentration difference of 1:100. Following the first dose range of two log doses, the DC are switched, proportional pumping rate adjusted, and the dose-responsecurve continued for another two log doses. The standard dose-response curve is carried out in one-half log dose increments starting at a subthreshold dose and ending at a dose which produces near maximal response in activity. Standard reference compounds are tested over the range of 10^-9 to 10^-6 M.
Measurements are for heart rate (HR) and coronary flow (CF). Units are: HR, beats/minute (bpm) and CF, milliliters/minute (ml/min). HR is calculated from the ECG strip chart recording and CF is calculated by recording analog outputs from pumps 1 and 2. Outputs from pump #1=CFT and the output from pump #2=CF for heart B (CFB). CF for heart A (CFA) is calculated (CFT -CFB =CFA).
Using the above techniques, the effects of the compound of Examples 1, 2 and 3 are as follows indicating the compound of Example 3 is preferred to increase coronary blood flow.

[4] = read-out: coronary flow (CF), % increase
[5] = read-out: heart rate (HR), % decrease

IC50 [1] [µM] | IC50 [2] [µM] | SMILES | activation at 1 µM [3, 4] [%] | inhibition at 1 µM [3, 5] [%] | activation at 0.01 µM [3, 4] [%] | inhibition at 0.01 µM [3, 5] [%] | activation at 0.001 µM ([3]; 1 × 10^-9 Molar, read-out: coronary flow (CF), % increase) [%] | inhibition at 0.001 µM ([3]; 1 × 10^-9 Molar, read-out: heart rate (HR), % decrease) [%] | activation at 0.3 µM [3, 4] [%] | inhibition at 0.3 µM [3, 5] [%] | activation at 0.03 µM [3, 4] [%] | inhibition at 0.03 µM [3, 5] [%] | activation at 0.003 µM ([3]; 3 × 10^-9 Molar, read-out: coronary flow (CF), % increase) [%] | inhibition at 0.003 µM ([3]; 3 × 10^-9 Molar, read-out: heart rate (HR), % decrease) [%] | activation at 0.1 µM [3, 4] [%] | inhibition at 0.1 µM [3, 5] [%] | activation at 3 µM [3, 4] [%] | inhibition at 3 µM [3, 5] [%]
0.063 | 0.092 | OC[C@H]1O[C@@H](n2cnc3c(NCC4=Cc5cccc6cccc4c56)ncnc32)[C@H](O)[C@@H]1O [Example 2, N^6-(1-acenaphthylenylmethyl)adenosine] | 62 | 30 | 37 | 1 | 2 | -1 | 60 | 25 | 48 | 4 | 7 | -1 |  |  |  | 
0.024 | 0.006 | OC[C@H]1O[C@@H](n2cnc3c(NCC4Cc5cccc6cccc4c56)ncnc32)[C@H](O)[C@@H]1O (stereo partly drawn) [Example 3, N^6-[(1,2-Dihydro-1-acenaphthylenyl)methyl]adenosine] | 62 | 65 | 41 | 2 |  |  | 67 | 44 | 49 | 8 |  |  | 58 | 36 | 67 | 68
0.95 | 0.64 | OC[C@H]1O[C@@H](n2cnc3c(NC4Cc5cccc6cccc4c56)ncnc32)[C@H](O)[C@@H]1O (stereo partly drawn) [Example 1, N^6 -Acenaphthyladenosine] | 44 | 5 | 0 | 1 |  |  | 40 | 2 | 7 | 0 |  |  | 27 | 2 | 49 | 8
